Source: ChEMBL document CHEMBL1201862, “PubChem BioAssay data set” (2004)
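Growth conditions: 96-well plates. Treatment: test compound, 48 hours, 5 concentrations. Analysis: linear interpolation between bracketing concentrations; unreached endpoints set to highest concentration. GI50 marks 50% less growth.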 Activity calls are given as the source filed them. Cut-off read from the data, not from the text of the source: active = GI50 up to about 1.1 µM and inactive = higher.

Assays:
Test in all cases: NCI tumour cell line growth inhibition, 48 h
LOX IMVI = test system: LOX IMVI
A549 = test system: A549
SK-OV-3 = test system: SK-OV-3
MOLT-4 = test system: MOLT-4
SR = test system: SR
SN12C = test system: SN12C
786-0 = test system: 786-0
SK-MEL-2 = test system: SK-MEL-2
SK-MEL-5 = test system: SK-MEL-5
UACC-257 = test system: UACC-257
SNB-75 = test system: SNB-75
IGROV-1 = test system: IGROV-1
HL-60 = test system: HL-60
HCT-15 = test system: HCT-15
OVCAR-3 = test system: OVCAR-3
SNB-19 = test system: SNB-19

Row | Compound | GI50 (LOX IMVI) | GI50 (A549) | GI50 (SK-OV-3) | GI50 (MOLT-4) | GI50 (SR) | GI50 (SN12C) | GI50 (786-0) | GI50 (SK-MEL-2) | GI50 (SK-MEL-5) | GI50 (UACC-257) | GI50 (SNB-75) | GI50 (IGROV-1) | GI50 (HL-60) | GI50 (HCT-15) [µM] | GI50 (OVCAR-3) | GI50 (SNB-19)
1 | COc1ccc(C2S/C(=C\c3cccc(OC)c3)C(=O)N2NC(=O)Cc2ccccc2)cc1 (stereo not drawn) | > 100 µM (inactive) | > 100 µM (inactive) | > 100 µM (inactive) | > 100 µM (inactive) | > 100 µM (inactive) | > 100 µM (inactive) | > 100 µM (inactive) | > 100 µM (inactive) | > 100 µM (inactive) | > 100 µM (inactive) | > 100 µM (inactive) | > 100 µM (inactive) | > 100 µM (inactive) | > 100 | – | –
2 | CC(=O)NC1=C(NCCN(C)C)C(=O)c2ccccc2C1=O | 12.6 µM (inactive) | 15 µM (inactive) | > 50 µM (inactive) | 21.9 µM (inactive) | 41.3 µM (inactive) | 10.4 µM (inactive) | 18.1 µM (inactive) | 15.3 µM (inactive) | 7.21 µM (inactive) | 9.25 µM (inactive) | 25.5 µM (inactive) | 14.7 µM (inactive) | 9.79 µM (inactive) | 9.51 | 14.7 µM (inactive) | 17.6 µM (inactive)
3 | Cc1nc2c(o1)/C(=N\c1ccccc1)c1ccccc1C2=O | 3.32 µM (inactive) | 20.3 µM (inactive) | 14.8 µM (inactive) | 18 µM (inactive) | – | 10.1 µM (inactive) | 15.2 µM (inactive) | 4.86 µM (inactive) | 2.56 µM (inactive) | 5.97 µM (inactive) | 10.9 µM (inactive) | 17.9 µM (inactive) | 3.3 µM (inactive) | 8.11 | 2.54 µM (inactive) | 11.5 µM (inactive)
4 | O=C(c1ccccc1)N1CCN2CCN=C(c3ccccc3)C21c1ccccc1 (stereo not drawn) | > 100 µM (inactive) | 95.3 µM (inactive) | > 100 µM (inactive) | 20.2 µM (inactive) | – | – | > 100 µM (inactive) | > 100 µM (inactive) | > 100 µM (inactive) | 25.8 µM (inactive) | 51.3 µM (inactive) | > 100 µM (inactive) | 19.2 µM (inactive) | – | 79.1 µM (inactive) | 38 µM (inactive)
5 | COc1cc([C@H]2c3cc4c(cc3[C@H](NCc3ccc(F)cc3)C3COC(=O)[C@H]32)OCO4)cc(OC)c1O (stereo partly drawn) | 2.64 µM (inactive) | – | 2.87 µM (inactive) | 0.344 µM (active) | – | 1.96 µM (inactive) | 1.84 µM (inactive) | 15.6 µM (inactive) | – | 14.8 µM (inactive) | 2.08 µM (inactive) | 1.44 µM (inactive) | 0.815 µM (active) | 2.29 | 11.1 µM (inactive) | 2.44 µM (inactive)
6 | Cc1cc(N(CCC#N)CCC#N)ccc1/N=N/c1ccc(Br)cc1 | > 21.7 µM (inactive) | 15.1 µM (inactive) | 2.64 µM (inactive) | 19.3 µM (inactive) | – | > 36.8 µM (inactive) | 13.2 µM (inactive) | 15.1 µM (inactive) | 12.3 µM (inactive) | > 100 µM (inactive) | – | 10.9 µM (inactive) | > 100 µM (inactive) | 5.56 | > 44.2 µM (inactive) | 16.1 µM (inactive)
7 | O=P(CN1CCOCC1)(c1ccccc1)c1ccccc1 | > 100 µM (inactive) | > 100 µM (inactive) | > 100 µM (inactive) | > 100 µM (inactive) | – | > 100 µM (inactive) | > 100 µM (inactive) | > 100 µM (inactive) | > 100 µM (inactive) | > 100 µM (inactive) | > 100 µM (inactive) | > 100 µM (inactive) | > 100 µM (inactive) | > 100 | > 100 µM (inactive) | > 100 µM (inactive)
8 | O=[N+]([O-])c1ccc(Sc2c3ccccc3nc3ccccc23)cc1 | > 100 µM (inactive) | > 100 µM (inactive) | – | > 100 µM (inactive) | – | > 100 µM (inactive) | > 100 µM (inactive) | > 100 µM (inactive) | > 100 µM (inactive) | > 100 µM (inactive) | > 100 µM (inactive) | > 100 µM (inactive) | 46.5 µM (inactive) | > 100 | > 100 µM (inactive) | > 100 µM (inactive)
9 | CN(C)c1ccc(/C=C2\CCc3ccccc3C2=O)cc1Br | 32.7 µM (inactive) | 51.3 µM (inactive) | > 100 µM (inactive) | 32.6 µM (inactive) | 29.2 µM (inactive) | > 100 µM (inactive) | > 100 µM (inactive) | 48.5 µM (inactive) | 25.8 µM (inactive) | 43.6 µM (inactive) | > 100 µM (inactive) | – | 21.2 µM (inactive) | 71.1 | 49 µM (inactive) | > 100 µM (inactive)
10 | CCc1cc(C(=O)OC)cn1C(=N)c1ccc(Cl)cc1 | > 100 µM (inactive) | > 100 µM (inactive) | > 100 µM (inactive) | > 100 µM (inactive) | – | > 100 µM (inactive) | > 100 µM (inactive) | > 100 µM (inactive) | > 100 µM (inactive) | > 100 µM (inactive) | 87.5 µM (inactive) | > 100 µM (inactive) | > 100 µM (inactive) | > 100 | > 100 µM (inactive) | > 100 µM (inactive)
11 | CCCCCCCCOCC(COC(=O)CCCCCCC)OC(=O)CCCCCCC (stereo not drawn) | > 100 µM (inactive) | > 100 µM (inactive) | > 100 µM (inactive) | > 100 µM (inactive) | 53 µM (inactive) | > 100 µM (inactive) | > 100 µM (inactive) | – | > 100 µM (inactive) | > 100 µM (inactive) | – | > 100 µM (inactive) | > 100 µM (inactive) | > 100 | > 100 µM (inactive) | > 100 µM (inactive)
12 | Cc1cnc2c(C)ccc([N+](=O)[O-])c2c1NCCCN(C)C | > 100 µM (inactive) | > 100 µM (inactive) | 75.3 µM (inactive) | > 100 µM (inactive) | > 100 µM (inactive) | > 100 µM (inactive) | > 100 µM (inactive) | > 100 µM (inactive) | – | > 100 µM (inactive) | – | > 100 µM (inactive) | > 100 µM (inactive) | > 100 | > 100 µM (inactive) | > 100 µM (inactive)
13 | CC1=CCC(O)C=CC(C)C(O)C(C)C=C(C)C(=O)c2c(O)c(C)cc3c2C(=O)C(N)=C(NC(=O)/C=C\C=C/C=CC(C)C(O)CC1=O)C3=O (stereo not drawn) | > 100 µM (inactive) | > 100 µM (inactive) | > 100 µM (inactive) | 63.7 µM (inactive) | – | > 100 µM (inactive) | > 100 µM (inactive) | > 100 µM (inactive) | > 100 µM (inactive) | > 100 µM (inactive) | > 100 µM (inactive) | > 100 µM (inactive) | 0.292 µM (active) | > 100 | 64.4 µM (inactive) | > 100 µM (inactive)
14 | COC1=C2C[C@H](O)C(C)C[C@@]2(OC)OC1=O (stereo partly drawn) | > 100 µM (inactive) | > 100 µM (inactive) | > 100 µM (inactive) | > 100 µM (inactive) | – | > 100 µM (inactive) | > 100 µM (inactive) | > 100 µM (inactive) | > 100 µM (inactive) | > 100 µM (inactive) | > 100 µM (inactive) | > 100 µM (inactive) | > 100 µM (inactive) | > 100 | > 100 µM (inactive) | > 100 µM (inactive)
15 | COc1c(C)cc(O)cc1C=O | > 100 µM (inactive) | > 100 µM (inactive) | > 100 µM (inactive) | > 100 µM (inactive) | – | > 100 µM (inactive) | > 100 µM (inactive) | > 100 µM (inactive) | > 100 µM (inactive) | > 100 µM (inactive) | > 100 µM (inactive) | > 100 µM (inactive) | > 100 µM (inactive) | > 100 | > 100 µM (inactive) | > 100 µM (inactive)
16 | O=[N+]([O-])c1cccc(C2=NOC(C3CCCCC3)C2)c1 (stereo not drawn) | – | > 100 µM (inactive) | > 100 µM (inactive) | > 100 µM (inactive) | – | > 100 µM (inactive) | > 100 µM (inactive) | > 100 µM (inactive) | > 100 µM (inactive) | > 100 µM (inactive) | > 100 µM (inactive) | > 100 µM (inactive) | > 100 µM (inactive) | > 100 | > 100 µM (inactive) | –
17 | COC(=O)c1c(C(=O)OC)c2cc(C(=O)c3ccccc3)ccn2c1Cl | 36.1 µM (inactive) | 41.5 µM (inactive) | – | 17.7 µM (inactive) | 15.4 µM (inactive) | 49.8 µM (inactive) | 44.6 µM (inactive) | 48.4 µM (inactive) | 16.2 µM (inactive) | – | 12.9 µM (inactive) | 53.1 µM (inactive) | 22.8 µM (inactive) | 20.9 | 21.6 µM (inactive) | 34 µM (inactive)
18 | CCN(CC)C(=O)CNC(=O)OC(C)(C)C | > 100 µM (inactive) | > 100 µM (inactive) | > 100 µM (inactive) | > 100 µM (inactive) | – | > 100 µM (inactive) | > 100 µM (inactive) | > 100 µM (inactive) | > 100 µM (inactive) | > 100 µM (inactive) | > 100 µM (inactive) | > 100 µM (inactive) | > 100 µM (inactive) | > 100 | > 100 µM (inactive) | > 100 µM (inactive)
19 | O=C1c2ccccc2C(=O)C1(Cl)C1(S(=O)(=O)O)c2ccccc2-c2ccccc21 | > 100 µM (inactive) | > 100 µM (inactive) | > 100 µM (inactive) | > 100 µM (inactive) | > 100 µM (inactive) | > 100 µM (inactive) | > 100 µM (inactive) | – | > 100 µM (inactive) | > 100 µM (inactive) | > 100 µM (inactive) | > 100 µM (inactive) | > 100 µM (inactive) | > 100 | > 100 µM (inactive) | –
